Laboratory results from US8124389B2, “Crystal structure of aldehyde dehydrogenase and methods of use thereof” (The Board of Trustees of the Leland Stanford Junior …, priority 2008, dated 2012).
Substitutions are numbered along the chain they refer to.

Experiments:
Type in all cases: biochemical
[1] = biological target: T1, heterotetrameric ALDH2 (wild type/mutant) (Homo sapiens, UniProt P05091, E504K); experiment: Enzyme activation of recombinant ALDH2 proteins by Alda-1 (FIG. 2); conditions: Alda-1 at 100 μM; 20 μg recombinant protein
T1 construct: made in house
T1 sequence (P05091 18-517): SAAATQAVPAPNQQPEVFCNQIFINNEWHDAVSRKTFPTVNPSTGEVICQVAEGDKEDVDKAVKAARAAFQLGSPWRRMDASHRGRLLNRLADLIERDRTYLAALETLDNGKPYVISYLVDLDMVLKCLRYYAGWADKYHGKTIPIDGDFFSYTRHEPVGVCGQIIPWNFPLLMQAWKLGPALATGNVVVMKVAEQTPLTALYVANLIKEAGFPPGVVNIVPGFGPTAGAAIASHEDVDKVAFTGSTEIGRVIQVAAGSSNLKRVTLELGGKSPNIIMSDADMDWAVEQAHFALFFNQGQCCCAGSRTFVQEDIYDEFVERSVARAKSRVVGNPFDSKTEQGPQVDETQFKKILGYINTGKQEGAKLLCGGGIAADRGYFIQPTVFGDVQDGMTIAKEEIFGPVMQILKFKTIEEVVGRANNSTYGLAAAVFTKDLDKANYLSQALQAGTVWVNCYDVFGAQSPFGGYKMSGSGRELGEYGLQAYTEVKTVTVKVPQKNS
T1 sequence (P05091 18-517 E504K): T1 sequence (P05091 18-517) with E487K
Procedure: (§1) FIG. 2 depicts enzyme activation of homotetrameric wild type ALDH2 (homo wild type), heterotetrameric ALDH2 (hetero wild type/mutant; comprising a mixture of wild-type and mutant monomers), and homotetrameric mutant ALDH2 by Alda-1(100 μM). Enzymatic activity of recombinant ALDH2 proteins (20 μg each) is presented in percentage using homotetrameric wild type enzyme as a 100% control (n=3, **p<0.01 vs. control).
(§2) Alda-1 is an ALDH2 agonist. […] Chen et al. (2008) Science 321:1493-1495; PMID: 18787169.

[2] = biological target: T2, homotetrameric mutant ALDH2*2 (Homo sapiens, UniProt P05091, E504K); experiment: as above; conditions: Alda-1 at 100 μM; 20 μg recombinant protein
T2 construct: made in house
T2 sequence (P05091 18-517 E504K): T1 sequence (P05091 18-517) with E487K
Procedure: as §1, §2

[3] = biological target: T3, homotetrameric wild type ALDH2*1/*1 (Homo sapiens, UniProt P05091); experiment: as above; conditions: Alda-1 at 100 μM; 20 μg recombinant protein
T3 construct: made in house
T3 sequence (P05091 18-517): T1 sequence (P05091 18-517)
Procedure: as §1, §2

[4] = biological target: T4, ALDH2*2 (Homo sapiens, UniProt P05091, E504K); experiment: Dehydrogenase activity kinetic assay (25 mM BES, pH 7.5); conditions: for Hill Slope / Vmax^(app) of daidzin inhibition curve / Vmin^(app) of daidzin inhibition curve: 100 μM propionaldehyde, 10 mM NAD+
T4 construct: made in house; host or cells: E. coli
T4 sequence (P05091 18-517 E504K): T1 sequence (P05091 18-517) with E487K
Procedure: (§3) (A) Wild-type ALDH2 at 0 μM or 10 μM Alda-1 and (B) ALDH2*2 at 0 μM or 50 μM Alda-1. NAD^+concentrations were 0.5 mM for wild-type ALDH2 and 10 mM for ALDH2*2. Lines show fits to 4-parameter logistic curve.
(§4) ALDH2 and ALDH2*2 were produced and purified using an E. coli expression system as previously described (Larson et al., 2005, J. Biol. Chem. 280, 30550-30556 and Larson et al., 2007, J. Biol. Chem., 282, 12940-12950). All enzyme assays were performed in 25 mM BES, pH 7.5 and included a final concentration of 2% (v/v) DMSO as a cosolvent in all cases whether or not Alda-1 was present. Enzyme concentrations in the dehydrogenase assays were between 0.03 and 0.06 μM for ALDH2 and between 0.3 and 0.5 μM for ALDH2*2. Esterase assays utilized 0.97 mM para-nitrophenylacetate (pNPA) as a standard substrate concentration and enzyme concentrations for 0.06 μM for ALDH2 and 0.7 μM for ALDH2*2. All kinetic data were analyzed with SigmaPlot (v10.0, StatSys). All activation data for the dehydrogenase and esterase reactions were fit to the expression v=Vo+{(Vmax[S])/(KAct+[S])}, where Vo is the initial velocity for the reaction in the absence of activator and KAct is the concentration of activator required for half-maximal activation. All single-vary experiments for Alda-1 activation utilized a minimum of 10 different concentrations across a range from 0-200 μM. […] All data represent the average of a minimum of three independent experiments with at least two different enzyme preparations.

[5] = biological target: T5, wild-type ALDH2 (Homo sapiens, UniProt P05091); experiment: as above; conditions: for Vm/Vo / Vmax^(app) / EC50: 25 mM BES, pH 7.5, 0.5 mM NAD+; for EC50: read-out: KAct^(app); for Hill Slope / Vmax^(app) of daidzin inhibition curve / Vmin^(app) of daidzin inhibition curve: 100 μM propionaldehyde, 0.5 mM NAD+
T5 construct: made in house; host or cells: E. coli
T5 sequence (P05091 18-517): T1 sequence (P05091 18-517)
Procedure: as §3, §4

[6] = biological target: T4, ALDH2*2; experiment: Esterase activity assay (p-nitrophenylacetate hydrolysis)
Procedure: as §4
(§5) The ability of Alda-1 to stimulate the hydrolysis of p-nitrophenylacetate both in the presence and absence of coenzyme was examined.

[7] = biological target: T5, wild-type ALDH2; experiment: as above; conditions: for Vmax / EC50 / Vo: 0.97 mM p-Nitrophenylacetate; for EC50: read-out: KAct^(app); for Vo: velocity in absence of activator
Procedure: as §4, §5

[8] = biological target: T4, ALDH2*2; experiment: Dehydrogenase activity kinetic assay (25 mM BES, pH 7.5)
[9] = fixed 50 μM Alda-1, NAD+ as varied activator, 0.97 mM p-Nitrophenylacetate

O=C(NCc1ccc2c(c1)OCO2)c1c(Cl)cccc1Cl [Alda-1, N-(1,3-benzodioxol-5-ylmethyl)-2,6-dichlorobenzamide]
increase of enzymatic activity [1]: 2.2 fold | increase of enzymatic activity [2]: 11 fold | increase of enzymatic activity [3]: 2.1 fold | effect on daidzin inhibition ([4]; 50 μM Alda-1): antagonized daidzin inhibition | effect on ALDH2 activity with phenylacetaldehyde or DACA [5]: little effect | effect on daidzin inhibition ([5]; 10 μM Alda-1): antagonized daidzin inhibition | effect on dehydrogenase activity with aromatic aldehydes (benzaldehyde, phenylacetaldehyde, DACA) ([5]; 20 μM Alda-1, saturating concentrations of substrate, pH 7.5): minimal effects | Vm/Vo ([5]; 100 μM Acetaldehyde): 1.8 +/− 0.1 | Vmax^(app) ([5]; 100 μM Acetaldehyde): 107 ± 12 min⁻¹ | EC50 ([5]; 100 μM Acetaldehyde): 0.98 µM | Vm/Vo ([5]; 100 μM Butyraldehyde): 1.3 +/− 0.1 | Vmax^(app) ([5]; 100 μM Butyraldehyde): 86.6 ± 3.1 min⁻¹ | EC50 ([5]; 100 μM Butyraldehyde): 1.8 µM | Vm/Vo ([5]; 100 μM Propionaldehyde): 1.7 +/− 0.1 | Vmax^(app) ([5]; 100 μM Propionaldehyde): 78.5 ± 9.6 min⁻¹ | EC50 ([5]; 100 μM Propionaldehyde): 5.1 µM | effect on ALDH2 activity with phenylacetaldehyde or DACA at high concentrations ([5]; Alda-1 >100 μM): weakly inhibitory | effect on activity with benzaldehyde ([5]; up to maximum concentration used, 200 μM Alda-1): little effect | Vmax ([6]; 1.0 mM NAD+, 0.97 mM p-Nitrophenylacetate): 14.7 ± 1.3 min⁻¹ | EC50 ([6]; 1.0 mM NAD+, 0.97 mM p-Nitrophenylacetate, read-out: KAct^(app)): 11.2 µM | Vo ([6]; 1.0 mM NAD+, 0.97 mM p-Nitrophenylacetate, velocity in absence of activator): 1.36 ± 0.28 min⁻¹ | increase of ester hydrolysis ([6]; combined Alda-1 and NAD+): over 100 fold | Vmax [6, 9]: 49.5 ± 4.3 min⁻¹ | Vo [6, 9]: 0.64 ± 0.19 min⁻¹ | Vmax ([6]; no NAD+, 0.97 mM p-Nitrophenylacetate): 2.3 ± 0.2 min⁻¹ | EC50 ([6]; no NAD+, 0.97 mM p-Nitrophenylacetate, read-out: KAct^(app)): 16.1 µM | Vo ([6]; no NAD+, 0.97 mM p-Nitrophenylacetate, velocity in absence of activator): 0.40 ± 0.03 min⁻¹ | EC50 ([6]; with Alda-1, read-out: half-maximal activating concentration of NAD+ for the esterase reaction in presence of Alda-1 (lowered from 7.5 mM)): 2800 µM | Vmax ([7]; 0.5 mM NAD+): 248 ± 22 min⁻¹ | EC50 ([7]; 0.5 mM NAD+): 2.6 µM | Vo ([7]; 0.5 mM NAD+): 96.3 ± 2.2 min⁻¹ | Vmax (second line, paired with Ki^(app)) ([7]; 0.5 mM NAD+, higher Alda-1 concentrations, antagonism with NAD+): 242 ± 14 min⁻¹ | Ki ([7]; 0.5 mM NAD+, higher Alda-1 concentrations, antagonism with NAD+, read-out: Ki^(app)): 328 µM | increase of ester hydrolysis ([7]; combined Alda-1 and NAD+): 10 fold | Vmax ([7]; no NAD+): 181 ± 6.8 min⁻¹ | EC50 ([7]; no NAD+): 3.4 µM | Vo ([7]; no NAD+): 24.9 ± 2.0 min⁻¹ | EC50 ([8]; covariation NAD+ (0.5-10 mM) and Alda-1 (0 to 30 μM), non-essential activator fit, read-out: Kact): 16 ± 3 µM | decrease of apparent Km for NAD+ ([8]; covariation NAD+ and Alda-1): 6.7 fold | increase of Vmax ([8]; covariation NAD+ and Alda-1): 2 fold | β-factor (modifier on Vmax) ([8]; covariation NAD+ and Alda-1, non-essential activator fit): 2.0±0.2

O=c1c(-c2ccc(O)cc2)coc2cc(O[C@@H]3O[C@H](CO)[C@@H](O)[C@H](O)[C@H]3O)ccc12 [Daidzin, daidzin, reference compound]
Hill Slope ([4]; 50 μM Alda-1): 1.1 +/− 0.1 | Vmax^(app) of daidzin inhibition curve ([4]; 50 μM Alda-1): 23.0 ± 1.7 min⁻¹ | Vmin^(app) of daidzin inhibition curve ([4]; 50 μM Alda-1): 0.2 ± 0.2 min⁻¹ | Hill Slope ([4]; no Alda-1): 1.1 +/− 0.1 | Vmax^(app) of daidzin inhibition curve ([4]; no Alda-1): 11.6 ± 1.3 min⁻¹ | Vmin^(app) of daidzin inhibition curve ([4]; no Alda-1): 0.2 ± 0.6 min⁻¹ | Hill Slope ([5]; 10 μM Alda-1): 1.0 +/− 0.1 | Vmax^(app) of daidzin inhibition curve ([5]; 10 μM Alda-1): 74.9 ± 12.1 min⁻¹ | Vmin^(app) of daidzin inhibition curve ([5]; 10 μM Alda-1): 2.5 ± 5.2 min⁻¹ | Hill Slope ([5]; no Alda-1): 0.9 +/− 0.3 | Vmax^(app) of daidzin inhibition curve ([5]; no Alda-1): 61.5 ± 6.1 min⁻¹ | Vmin^(app) of daidzin inhibition curve ([5]; no Alda-1): 5.1 ± 4.7 min⁻¹
